In patent publication US10745408B2, “Biologically active taxane analogs and methods of treatment by oral administration” (Tapestry Pharmaceuticals, Inc., priority 2007, dated 2020):

Columns and labels:
[1] = tested on: bovine microtubule protein; test: In vitro ED50 MT polymerization study (DAPI fluorescence tubulin assay); type: biochemical; details: for ED50 Compound/ED50 Paclitaxel: ratio; for EC50: tubulin polymerization, 37° C. 30 minutes, maximum assembly = 25 μM paclitaxel
Procedure: In Vitro ED50 MT Polymerization Study
In this tubulin binding assay, microtubule protein (MTP) is used as a substrate. The assay contains bovine tubulin plus microtubule associated proteins (MAP). MTP is polymerized into microtubules in the presence of DAPI (4′,6′-diamidino-2-phenylindole), a fluorescent compound. DAPI binds to tubulin; when microtubules are formed and there is an enhancement of fluorescence. The microtubule formation is measured as a function of time, using a fluorescence plate reader. […] The method used is based on the procedure published by Donna M. Barron, et al, “Fluorescence-based high-throughput assay for antimicrotuble drugs” Analytical Biochemistry, 315: 49-56, 2003, which is incorporated by reference in its entirety. The excitation wavelength, in that assay, was set at 370 nm and the emission wavelength was set at 450 nm for the DAPI experiments.
A Bio-Tek FL 600 microplate Fluorescence Reader was used to measure the relative level of fluorescence in the DAPI assay.
Assays were conducted in 96-well plates. Each well contained a total volume of 0.1 mL consisting of PEM buffer (0.1 M Pipes, 1 mM EGTA, 1 mM MgCl2, pH 6.9), 0.2 mg bovine microtubule protein, and 10 μg of DAPI. […] The final DMSO concentration was 4%. The plates were incubated at 37° C. for 30 minutes and read in a fluorescence plate reader using an excitation wavelength of 360 nm and an emission wavelength of 460 nm. Fluorescence values were corrected for the sample without compound.
Experiments were done twice in triplicate. Results were subsequently combined and fit to a non-linear regression program.

[2] = tested on: U251 human CNS tumor cells (glioblastoma); details: temozolomide 80 mg/kg/dose po q4d×3
Description: Tumor Model: Each animal was implanted with one million U251 human CNS tumor cells from an in vitro cell line by ic injection with a 25 gauge needle. The day of tumor implantation (May 24, 2006) was designated as day 0. A sufficient number of mice were implanted so that animals with body weights in a range as narrow as possible were selected for the trial on the day of treatment initiation (day 1 after tumor implantation). Animals were randomly assigned to the treatment groups and individually identified by earmark codes.
A portion of this solution was then diluted with the complete vehicle to achieve the lower dosing concentration of 1.2 mg/mL. […] Temozolomide (Temodar, Schering Corporation) was prepared on each day of injection in Klucel+tween 80 at a concentration of 4 mg/mL. Temozolomide was administered within 5 minutes of formulation on the basis of exact body weight using a volume of 0.2 mL/10 g of body weight.
Data Collection: Animal health surveillance was conducted and mortality data were collected daily. The animals were weighed twice weekly starting with the first day of treatment.
Study Duration: The study was terminated 100 days after tumor implantation. Any animal found moribund or whose body weight dropped below 14 g was euthanized prior to study termination.
Parameters Evaluated: Number of 100-day survivors, median day of death, and the increase in lifespan based on median day of death and expressed as a percentage (% ILS), median survival time and the % ILS based on median survival time.

SMILES | ED50 Compound/ED50 Paclitaxel [1] | EC50 [1] | ILS based on median survival time [2] | median day of death [2] | median survival time [2] | survivors day 100 [2]
CC(=O)O[C@@]12CO[C@@H]1C[C@H](O)[C@@]1(C)C(=O)[C@H](O)C3=C(C)[C@@H](OC(=O)[C@H](O)[C@@H](NC(=O)OC(C)(C)C)c4ccccc4)C[C@@](O)([C@@H](OC(=O)c4ccccc4)[C@H]21)C3(C)C [Docetaxel] | 1.07 | 3.18 ± 0.45 µM | – | – | – | –
C/C(=C\c1csc(C)n1)[C@@H]1C[C@@H]2O[C@]2(C)CCC[C@H](C)[C@H](O)[C@@H](C)C(=O)C(C)(C)[C@@H](O)CC(=O)O1 [Epothilone B] | 1.11 | 3.31 ± 0.51 µM | – | – | – | –
Cn1nnc2c(C(N)=O)ncn2c1=O [temozolomide, Temozolomide] | – | – | 400% | 48 days | 50 days | 100 = 1)
